Experimental data reported in US9051544B2, “Method of enhancing cell growth using alkyl-amine-n-oxide (AANOx)” (BAXTER INTERNATIONAL INC., priority 2008, dated 2015).

How the values were obtained:
[1] = system: CHO cells; test: DDAO spiked into media at 0-50 ppm or equivalent ppb, in duplicate by serial dilution; cell growth and viability; type: cell-based, Chinese hamster
Excerpt: In separate experiments, DDAO was spiked into media at differing concentrations between 0-50 ppm or equivalent ppb in duplicate using serial dilution of high DDAO containing-media to reduce error (FIGS. 3 and 4).

[2] = system: CHO cells expressing FVIII; type: cell-based, Chinese hamster
Method: In order to determine the effect of DDAO levels in cell growth, experiments were undertaken using CHO cells expressing FVIII with varying levels of DDAO equivalent to the contaminating amount in certain lots of commercial soy hydrolysate.
Cells from a bioreactor containing CHO cells in BAV serum free media, DMEM/HAM's F12 medium (11.76 g) supplemented with soya-peptone (4 g), ethanolamine (1.53 mg), L-glutamine (0.6 g), NaHCO3 (2.0 g) and SYNPERONIC (PLURONIC®) F68 (0.25 g) (see International Patent Publ. WO/2006/045438) were cultured with 4 g/L soy peptone in 60 mL Roux flasks. Roux flasks provide a static, unmoving environment for the cells to grow.

[3] = system: Bacillus bacteria; details: Bacillus bacteria in culture; Brycki et al.; cited from earlier work

## CCCCCCCCCCCC[N+](C)(C)[O-] [DDAO, dodecyldimethylamine oxide]
[1]; FIG. 3
  DDAO level up to which there is a beneficial effect on cell growth: 5-10 ppb
[1]; FIG. 4, duplicate samples
  DDAO level up to which there is a beneficial effect on cell growth: 6-10 ppm
[2]; Chinese hamster
  DDAO level above which toxicity is shown: above 21.5 ppm
[2]; ppm equivalent in the soy hydrolysate, Roux flasks
  DDAO level up to which there is a positive effect on cell growth: up to 20 ppm
[3]
  DDAO level above which the process of denitrification is slowed: above 75 parts per million
